# Data taken from PubChem BioAssay (NCI).
#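 Compound exposure: 48 hours, 5 concentrations, 96-well plates. At the TGI there is no net growth.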
# Columns and labels:
# Assay in all cases: NCI-60 cell line screen, 48 h
# SK-MEL-28 melanoma = tested on: SK-MEL-28 melanoma
# OVCAR-3 ovarian = tested on: OVCAR-3 ovarian
# OVCAR-5 ovarian = tested on: OVCAR-5 ovarian
# UACC-257 melanoma = tested on: UACC-257 melanoma
# EKVX NSCLC = tested on: EKVX NSCLC
# CCRF-CEM leukemia = tested on: CCRF-CEM leukemia
# IGROV1 ovarian = tested on: IGROV1 ovarian
# HCT-15 colon = tested on: HCT-15 colon
# HL-60(TB) leukemia = tested on: HL-60(TB) leukemia
# COLO 205 colon = tested on: COLO 205 colon
# MDA-MB-231 breast = tested on: MDA-MB-231 breast
# MCF7 breast = tested on: MCF7 breast
# SK-OV-3 ovarian = tested on: SK-OV-3 ovarian
# LOX IMVI melanoma = tested on: LOX IMVI melanoma
# M14 melanoma = tested on: M14 melanoma
# K-562 leukemia = tested on: K-562 leukemia
# MDA-N = tested on: MDA-N
# NCI-H460 lung = tested on: NCI-H460 lung
# BT-549 breast = tested on: BT-549 breast
# HCT-116 colon = tested on: HCT-116 colon
# OVCAR-8 ovarian = tested on: OVCAR-8 ovarian
# SN12C renal = tested on: SN12C renal
# SK-MEL-5 melanoma = tested on: SK-MEL-5 melanoma
# SK-MEL-2 melanoma = tested on: SK-MEL-2 melanoma
# NCI-H23 lung = tested on: NCI-H23 lung
# MDA-MB-435 = tested on: MDA-MB-435
# U251 CNS = tested on: U251 CNS
# 786-0 renal = tested on: 786-0 renal
# HCC-2998 colon = tested on: HCC-2998 colon
# ACHN renal = tested on: ACHN renal
# TK-10 renal = tested on: TK-10 renal
# A498 renal = tested on: A498 renal
# RXF 393 renal = tested on: RXF 393 renal
# T-47D breast = tested on: T-47D breast
# SF-295 CNS = tested on: SF-295 CNS
# PC-3 prostate = tested on: PC-3 prostate
# UACC-62 melanoma = tested on: UACC-62 melanoma
# DU-145 prostate = tested on: DU-145 prostate
# NCI-H226 lung = tested on: NCI-H226 lung
# NCI/ADR-RES ovarian = tested on: NCI/ADR-RES ovarian
# A549 NSCLC = tested on: A549 NSCLC
# MALME-3M melanoma = tested on: MALME-3M melanoma
# SNB-19 CNS = tested on: SNB-19 CNS
# UO-31 renal = tested on: UO-31 renal
# HOP-62 NSCLC = tested on: HOP-62 NSCLC
# HT29 colon = tested on: HT29 colon
# SNB-75 CNS = tested on: SNB-75 CNS
# NCI-H522 lung = tested on: NCI-H522 lung
# CAKI-1 renal = tested on: CAKI-1 renal
# OVCAR-4 ovarian = tested on: OVCAR-4 ovarian
# SR leukemia = tested on: SR leukemia
# SF-268 CNS = tested on: SF-268 CNS
# HOP-92 NSCLC = tested on: HOP-92 NSCLC
# MOLT-4 leukemia = tested on: MOLT-4 leukemia
# HS 578T breast = tested on: HS 578T breast
# SW-620 colon = tested on: SW-620 colon
# KM12 colon = tested on: KM12 colon
# RPMI-8226 leukemia = tested on: RPMI-8226 leukemia
# SF-539 CNS = tested on: SF-539 CNS
smiles,measurement,setting,value
O=c1ccn(C/C=C/c2ccccc2)c(=S)n1C/C=C/c1ccccc1,TGI,SK-MEL-28 melanoma,> 100 µM
same,TGI,OVCAR-3 ovarian,> 100 µM
same,TGI,OVCAR-5 ovarian,> 100 µM
same,TGI,UACC-257 melanoma,> 100 µM
same,TGI,EKVX NSCLC,> 100 µM
same,TGI,CCRF-CEM leukemia,62.9 µM
same,TGI,IGROV1 ovarian,> 100 µM
same,TGI,HCT-15 colon,> 100 µM
same,TGI,HL-60(TB) leukemia,39.4 µM
same,TGI,COLO 205 colon,> 100 µM
same,TGI,MDA-MB-231 breast,> 100 µM
same,TGI,MCF7 breast,> 100 µM
same,TGI,SK-OV-3 ovarian,> 100 µM
same,TGI,LOX IMVI melanoma,> 100 µM
same,TGI,M14 melanoma,> 100 µM
same,TGI,K-562 leukemia,> 100 µM
same,TGI,MDA-N,> 100 µM
same,TGI,NCI-H460 lung,> 100 µM
same,TGI,BT-549 breast,> 100 µM
same,TGI,HCT-116 colon,> 100 µM
same,TGI,OVCAR-8 ovarian,> 100 µM
same,TGI,SN12C renal,> 100 µM
same,TGI,SK-MEL-5 melanoma,> 100 µM
same,TGI,SK-MEL-2 melanoma,> 100 µM
same,TGI,NCI-H23 lung,> 100 µM
same,TGI,MDA-MB-435,> 100 µM
same,TGI,U251 CNS,> 100 µM
same,TGI,786-0 renal,> 100 µM
same,TGI,HCC-2998 colon,> 100 µM
same,TGI,ACHN renal,> 100 µM
same,TGI,TK-10 renal,> 100 µM
same,TGI,A498 renal,> 100 µM
same,TGI,RXF 393 renal,85.6 µM
same,TGI,T-47D breast,> 100 µM
same,TGI,SF-295 CNS,> 100 µM
same,TGI,PC-3 prostate,> 100 µM
same,TGI,UACC-62 melanoma,> 100 µM
same,TGI,DU-145 prostate,> 100 µM
same,TGI,NCI-H226 lung,> 100 µM
same,TGI,NCI/ADR-RES ovarian,> 100 µM
same,TGI,A549 NSCLC,> 100 µM
same,TGI,MALME-3M melanoma,> 100 µM
same,TGI,SNB-19 CNS,> 100 µM
same,TGI,UO-31 renal,> 100 µM
same,TGI,HOP-62 NSCLC,> 100 µM
same,TGI,HT29 colon,> 100 µM
same,TGI,SNB-75 CNS,> 100 µM
same,TGI,NCI-H522 lung,> 100 µM
same,TGI,CAKI-1 renal,> 100 µM
same,TGI,OVCAR-4 ovarian,> 100 µM
same,TGI,SR leukemia,> 100 µM
same,TGI,SF-268 CNS,> 100 µM
same,TGI,HOP-92 NSCLC,> 100 µM
same,TGI,MOLT-4 leukemia,92.6 µM
same,TGI,HS 578T breast,> 100 µM
same,TGI,SW-620 colon,> 100 µM
same,TGI,KM12 colon,> 100 µM
CC1(C=O)CC(CCc2ccccc2)NC1Cc1ccc(O)cc1 (stereo not given),TGI,RPMI-8226 leukemia,40.7 µM
same,TGI,SK-MEL-28 melanoma,54 µM
same,TGI,OVCAR-3 ovarian,33.2 µM
same,TGI,OVCAR-5 ovarian,31.5 µM
same,TGI,UACC-257 melanoma,29.6 µM
same,TGI,EKVX NSCLC,29 µM
same,TGI,CCRF-CEM leukemia,82.7 µM
same,TGI,IGROV1 ovarian,30.8 µM
same,TGI,HCT-15 colon,43.3 µM
same,TGI,HL-60(TB) leukemia,31.8 µM
same,TGI,COLO 205 colon,23.3 µM
same,TGI,MDA-MB-231 breast,26.5 µM
same,TGI,MCF7 breast,27.1 µM
same,TGI,SK-OV-3 ovarian,33.4 µM
same,TGI,LOX IMVI melanoma,35 µM
same,TGI,M14 melanoma,29.7 µM
same,TGI,K-562 leukemia,48.1 µM
same,TGI,MDA-N,32.1 µM
same,TGI,NCI-H460 lung,31.8 µM
same,TGI,BT-549 breast,39.4 µM
same,TGI,HCT-116 colon,29.6 µM
same,TGI,OVCAR-8 ovarian,43.7 µM
same,TGI,SN12C renal,31.6 µM
same,TGI,SK-MEL-5 melanoma,29.4 µM
same,TGI,SK-MEL-2 melanoma,29 µM
same,TGI,NCI-H23 lung,43.5 µM
same,TGI,MDA-MB-435,34 µM
same,TGI,U251 CNS,26.5 µM
same,TGI,786-0 renal,29.2 µM
same,TGI,HCC-2998 colon,24.9 µM
same,TGI,ACHN renal,28.6 µM
same,TGI,TK-10 renal,31.8 µM
same,TGI,A498 renal,27.9 µM
same,TGI,RXF 393 renal,31 µM
same,TGI,SF-539 CNS,29.4 µM
same,TGI,T-47D breast,40.9 µM
same,TGI,SF-295 CNS,33.8 µM
same,TGI,PC-3 prostate,26.7 µM
same,TGI,UACC-62 melanoma,30.3 µM
same,TGI,DU-145 prostate,33.4 µM
same,TGI,NCI-H226 lung,31.5 µM
same,TGI,NCI/ADR-RES ovarian,37.6 µM
same,TGI,A549 NSCLC,30.1 µM
same,TGI,SNB-19 CNS,28.1 µM
same,TGI,UO-31 renal,28.4 µM
same,TGI,HOP-62 NSCLC,36.4 µM
same,TGI,HT29 colon,29.5 µM
same,TGI,SNB-75 CNS,28.6 µM
same,TGI,NCI-H522 lung,35 µM
same,TGI,CAKI-1 renal,29.3 µM
same,TGI,OVCAR-4 ovarian,29 µM
same,TGI,SR leukemia,33.9 µM
same,TGI,SF-268 CNS,33.1 µM
same,TGI,HOP-92 NSCLC,30 µM
same,TGI,MOLT-4 leukemia,38.2 µM
same,TGI,HS 578T breast,41.9 µM
same,TGI,SW-620 colon,62.3 µM
same,TGI,KM12 colon,37.5 µM
